# Measured values taken from the NIST ThermoML archive (doi:10.1016/j.jct.2019.02.010).
# ± gives the expanded uncertainty stated by the source.
# Key:
# [1] = 101.33 kPa; for mass density: Vibrating tube method; for viscosity: Falling or rolling sphere viscometry
# [2] = xn = mol fraction of the nth substance listed; conditions: for viscosity / mass density: 101.3 kPa, Liquid; for viscosity: Falling or rolling sphere viscometry; for mass density: Vibrating tube method; for surface tension liquid-gas: 298.15 K, Ring tensiometer
compound,measurement,setting,value
CC(=O)CCC(=O)O [4-oxopentanoic acid],mass density,"[1]; 293.15 K, Metastable liquid",1140.1 ± 8.1 kg/m3
same,mass density,"[1]; 303.15 K, Metastable liquid",1131.6 ± 8.1 kg/m3
same,mass density,"[1]; 313.15 K, Metastable liquid",1123 ± 8.1 kg/m3
same,mass density,"[1]; 323.15 K, Metastable liquid",1114.5 ± 8.1 kg/m3
same,mass density,"[1]; 333.15 K, Metastable liquid",1105.9 ± 8.1 kg/m3
same,mass density,"[1]; 343.15 K, Metastable liquid",1097.4 ± 8.1 kg/m3
CC(=O)CCC(=O)O [4-oxopentanoic acid] + C[N+](C)(C)CCO.[Cl-],viscosity,"[2]; 293.15 K, x2 = 0.333",362.08 ± 49 mPa·s
same,mass density,"[2]; 293.15 K, x2 = 0.333",1141.9 ± 8.1 kg/m3
same,surface tension liquid-gas,[2]; x2 = 0.333,39.95 ± 2.1 mN/m
same,viscosity,"[2]; 303.15 K, x2 = 0.333",183.72 ± 23 mPa·s
same,mass density,"[2]; 303.15 K, x2 = 0.333",1135.2 ± 8.1 kg/m3
same,viscosity,"[2]; 313.15 K, x2 = 0.333",103.46 ± 13 mPa·s
same,mass density,"[2]; 313.15 K, x2 = 0.333",1128.5 ± 8.1 kg/m3
same,viscosity,"[2]; 323.15 K, x2 = 0.333",62.8 ± 7.6 mPa·s
same,mass density,"[2]; 323.15 K, x2 = 0.333",1121.9 ± 8.1 kg/m3
same,viscosity,"[2]; 333.15 K, x2 = 0.333",39.59 ± 4.8 mPa·s
same,mass density,"[2]; 333.15 K, x2 = 0.333",1115.3 ± 8.1 kg/m3
CCCCO [butan-1-ol],viscosity,"[1]; 293.15 K, Liquid",2.95 ± 0.35 mPa·s
same,mass density,"[1]; 293.15 K, Liquid",809.5 ± 8 kg/m3
same,viscosity,"[1]; 303.15 K, Liquid",2.28 ± 0.27 mPa·s
same,mass density,"[1]; 303.15 K, Liquid",801.9 ± 8 kg/m3
same,viscosity,"[1]; 313.15 K, Liquid",1.79 ± 0.22 mPa·s
same,mass density,"[1]; 313.15 K, Liquid",794.1 ± 8 kg/m3
same,viscosity,"[1]; 323.15 K, Liquid",1.42 ± 0.17 mPa·s
same,mass density,"[1]; 323.15 K, Liquid",786.2 ± 8 kg/m3
same,viscosity,"[1]; 333.15 K, Liquid",1.15 ± 0.14 mPa·s
same,mass density,"[1]; 333.15 K, Liquid",778.1 ± 8 kg/m3
C[N+](C)(C)CCO.[Cl-] [choline chloride] + OCCO,viscosity,"[2]; 293.15 K, x1 = 0.334",58.81 ± 7.1 mPa·s
same,mass density,"[2]; 293.15 K, x1 = 0.334",1119.5 ± 8.1 kg/m3
same,surface tension liquid-gas,[2]; x1 = 0.334,45.66 ± 2.1 mN/m
same,viscosity,"[2]; 303.15 K, x1 = 0.334",38.9 ± 4.7 mPa·s
same,mass density,"[2]; 303.15 K, x1 = 0.334",1113.9 ± 8.1 kg/m3
same,viscosity,"[2]; 313.15 K, x1 = 0.334",27.04 ± 3.2 mPa·s
same,mass density,"[2]; 313.15 K, x1 = 0.334",1108.1 ± 8.1 kg/m3
same,viscosity,"[2]; 323.15 K, x1 = 0.334",19.74 ± 2.4 mPa·s
same,mass density,"[2]; 323.15 K, x1 = 0.334",1102.5 ± 8.1 kg/m3
same,viscosity,"[2]; 333.15 K, x1 = 0.334",14.69 ± 1.8 mPa·s
same,mass density,"[2]; 333.15 K, x1 = 0.334",1096.9 ± 8.1 kg/m3
C[N+](C)(C)CCO.[Cl-] [choline chloride] + Oc1ccccc1,viscosity,"[2]; 293.15 K, x1 = 0.333",129.98 ± 16 mPa·s
same,mass density,"[2]; 293.15 K, x1 = 0.333",1099.4 ± 8.1 kg/m3
same,surface tension liquid-gas,[2]; x1 = 0.333,35.46 ± 2.1 mN/m
same,viscosity,"[2]; 303.15 K, x1 = 0.333",74 ± 8.9 mPa·s
same,mass density,"[2]; 303.15 K, x1 = 0.333",1093.4 ± 8.1 kg/m3
same,viscosity,"[2]; 313.15 K, x1 = 0.333",44.33 ± 5.3 mPa·s
same,mass density,"[2]; 313.15 K, x1 = 0.333",1087.4 ± 8.1 kg/m3
same,viscosity,"[2]; 323.15 K, x1 = 0.333",30.23 ± 3.6 mPa·s
same,mass density,"[2]; 323.15 K, x1 = 0.333",1081.5 ± 8.1 kg/m3
same,viscosity,"[2]; 333.15 K, x1 = 0.333",21.5 ± 2.6 mPa·s
same,mass density,"[2]; 333.15 K, x1 = 0.333",1075.6 ± 8.1 kg/m3
